The results in this text go back to US20240067645A1, “HETEROCYCLIC COMPOUND AS DIACYLGLYCEROL KINASE INHIBITOR AND USE THEREOF” (LG CHEM, LTD., priority 2020, published 2024).

The target of this assay is DGKα (Homo sapiens (Human), UniProt P23743). Put plainly: Measurement of inhibitory effect against DGKα enzyme (ADP-Glo). It is filed as biochemical. Particulars: DGKα enzyme, ADP-Glo luminescence, OAG/ATP substrate, 20 min room temperature; read-out: IC50. The procedure: Experimental Example: Measurement of Inhibitory Effect Against DGKα Enzyme
Sequence of DGKα (P23743 whole entry, species assumed): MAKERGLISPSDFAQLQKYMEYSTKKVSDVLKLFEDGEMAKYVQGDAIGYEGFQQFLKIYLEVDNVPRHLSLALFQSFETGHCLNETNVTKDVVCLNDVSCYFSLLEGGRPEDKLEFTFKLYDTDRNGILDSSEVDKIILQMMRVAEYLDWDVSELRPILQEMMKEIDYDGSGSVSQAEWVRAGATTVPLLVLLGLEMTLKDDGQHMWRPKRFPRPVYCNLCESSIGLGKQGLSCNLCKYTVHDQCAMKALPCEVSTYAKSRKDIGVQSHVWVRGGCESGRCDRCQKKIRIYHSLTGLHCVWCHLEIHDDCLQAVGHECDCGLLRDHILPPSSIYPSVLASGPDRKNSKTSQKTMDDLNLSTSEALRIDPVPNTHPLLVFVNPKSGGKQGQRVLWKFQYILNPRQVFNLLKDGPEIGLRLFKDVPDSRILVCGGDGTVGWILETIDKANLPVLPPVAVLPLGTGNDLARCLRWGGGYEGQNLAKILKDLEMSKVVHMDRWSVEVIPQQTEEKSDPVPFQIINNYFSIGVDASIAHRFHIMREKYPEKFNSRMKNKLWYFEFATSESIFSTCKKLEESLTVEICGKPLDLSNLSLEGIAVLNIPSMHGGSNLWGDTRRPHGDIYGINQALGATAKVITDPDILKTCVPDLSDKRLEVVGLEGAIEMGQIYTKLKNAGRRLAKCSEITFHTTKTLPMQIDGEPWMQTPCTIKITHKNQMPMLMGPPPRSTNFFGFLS
First, 3×OAG (3 mM)/ATP (0.45 mM) substrate solution was prepared from 1× substrate assay buffer (40 mM MOPS (pH 7.2), 20 mM MgCl2, 1 mM DTT, 0.4 mM CaCl2), 3 mM sodium deoxycholate, 100 mM NaCl, 0.1 mg/mL BSA, 0.12% NP-40), and vortexed thoroughly for 3 minutes to induce detergent-lipid micelle formation. Then, 3×DGKα (7.5 nM) enzyme solution was prepared from 2× enzyme assay buffer (80 mM MOPS (pH 7.2), 2 mM DTT, 200 mM NaCl, 0.2 mg/mL BSA) and vortexed for a short time.
After preparing the above two solutions, a half-area opaque 96-well assay plate was prepared, and 10 μL of 3× diluted compound solution (30 μM to 0 μM) was transferred to each well. Next, 10 μL of 3×DGK enzyme solution was transferred to the same plate, mixed by pipetting, and then 10 μL of 3×OAG/ATP substrate solution was added to the assay plate and mixed well. The plate was incubated at room temperature for 20 minutes for the enzyme reaction. Next, 15 μL of ADP-Glo reagent was added to each well and mixed by pipetting, followed by incubating the plate at room temperature for 40 minutes to deplete the remaining ATPs. After this step, 30 μL of kinase detection reagent was added and mixed, and the plate was incubated at room temperature for an additional 20 minutes and luminescence was measured by Envision to calculate the IC50 value of each compound.
The measurement results are represented in Table 1 (+: IC50>5 μM, ++: 5 μM>IC50>300 nM, +++: IC50<300 nM).
In the case of `Cc1ccc2c(n1)n(C1CCN(Cc3cc4ccccc4nc3Cl)CC1)c(=O)c(=O)n2C` [Example 6, 4-(1-((2-chloroquinolin-3-yl)methyl)piperidin-4-yl)-1,6-dimethyl-1,4-dihydropyrido[2,3-b]pyrazine-2,3-dione], the IC50 is 0.3 to 5 µM.
The figure for `Cn1c(=O)c(=O)n(C2CCN(Cc3ccc(OC(F)(F)F)cc3)CC2)c2nc(C#N)ccc21` [Example 11, 1-methyl-2,3-dioxo-4-(1-(4-(trifluoromethoxy)benzyl)piperidin-4-yl)-1,2,3,4-tetrahydropyrido[2,3-b]pyrazine-6-carbonitrile] is 0.3 to 5 µM; for `Cc1ccc2c(n1)n(C1CCN(Cc3ccnc4ccccc34)CC1)c(=O)c(=O)n2C` [Example 9, 1,6-dimethyl-4-(1-(quinolin-4-ylmethyl)piperidin-4-yl)-1,4-dihydropyrido[2,3-b]pyrazine-2,3-dione] it is 0.3 to 5 µM; for `Cc1ccc2c(n1)n(C1CCN(Cc3cccc4ccccc34)CC1)c(=O)c(=O)n2C` [Example 5, 1,6-dimethyl-4-(1-(naphthalen-1-ylmethyl)piperidin-4-yl)-1,4-dihydropyrido[2,3-b]pyrazine-2,3-dione] it is less than 0.3 µM.
As for `Cn1c(=O)c(=O)n(C2CCN(Cc3ccc(OC(F)(F)F)cc3)CC2)c2ncc(F)cc21` [Example 59, 7-fluoro-1-methyl-4-(1-(4-(trifluoromethoxy)benzyl)piperidin-4-yl)-1,4-dihydropyrido[2,3-b]pyrazine-2,3-dione], the IC50 lay in the range of 0.3 to 5 µM.
